Results from US11046716B2, “Beta-lactamase inhibitors” (priority 2015, dated 2021).

What was measured:
OXA-48 = OXA-48 (UniProt Q6XEC0); assay: β-lactamase enzyme inhibition assay, Class D oxacillinase; type: biochemical; conditions: read-out: OXA-48
AmpC = molecular target: T1, AmpC (Enterobacter cloacae, UniProt P05364); assay: β-lactamase enzyme inhibition assay, p99 AmpC (nitrocefin substrate); type: biochemical
T1 construct: made in house; host or cells: E. coli BL21(DE3)
Outline: (§1)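 Native untagged β-lactamases were expressed in E. coli BL21(DE3), then purified by cation exchange and gel filtration. Enzyme was preincubated with inhibitor for 15 min at 37 °C before substrate was added. IC50 was taken from initial hydrolysis rates relative to no-inhibitor controls.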

[1] = test system: E. coli expressing the Class A Extended Spectrum Beta-Lactamase (ESBL) CTX-M-15; assay: Broth microdilution MIC assay with ceftazidime, E. coli CTX-M-15; type: cell-based; conditions: Fixed CAZ (ceftazidime) 4 μg/mL; E. coli ESBL4 CTX-M-15
Outline: (§2)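 Visual MIC readout of the test compound after 16-20 hours at 37° C, measured in the presence of a constant 4 μg/ml β-lactam. Compound concentrations spanned 16 to 0.125 μg/mL in 2-fold steps in cation-adjusted Mueller Hinton broth.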

[2] = test system: P. aeruginosa expressing the Class B carbapenemase VIM-2; assay: Broth microdilution MIC assay with meropenem, P. aeruginosa VIM-2; type: cell-based; conditions: Fixed Mero (meropenem) 4 μg/mL; P. aerug. 2775 VIM-2
Outline: as §2

SHV-5 = molecular target: T2, SHV-5 (Klebsiella pneumoniae, UniProt P0A3M1); assay: β-lactamase enzyme inhibition assay, SHV-5 (cefotaxime substrate); type: biochemical
T2 construct: made in house; host or cells: E. coli BL21(DE3)
Outline: as §1, with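 “added. Imipenem (A300) served KPC-2 and cefotaxime (A260) served SHV-5.” for “added.”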

[3] = test system: K. pneumoniae expressing the class A carbapenemase KPC-2 and the class B carbapenemase VIM-4; assay: Broth microdilution MIC assay with meropenem, K. pneumoniae KPC-2 and VIM-4; type: cell-based; conditions: Fixed Mero (meropenem) 4 μg/mL; K. p. A-1797 KPC-2 VIM-4
Outline: as §2

[4] = test system: K. pneumoniae expressing the Class A carbapenemase KPC-2; assay: Broth microdilution MIC assay with meropenem, K. pneumoniae KPC-2; type: cell-based; conditions: Fixed Mero (meropenem) 4 μg/mL; K. p. 156319 KPC-3
Outline: as §2

[5] = test system: E. cloacae expressing the Class C P99; assay: Broth microdilution MIC assay with ceftazidime, E. cloacae P99; type: cell-based; conditions: Fixed CAZ (ceftazidime) 4 μg/mL; E. cl. 144200 p99 AmpC
Outline: as §2

KPC-2 = molecular target: T3, KPC-2 (Klebsiella pneumoniae, UniProt Q9F663); assay: β-lactamase enzyme inhibition assay, KPC-2 (imipenem substrate); type: biochemical; conditions: Class A; imipenem substrate, 300 nm; read-out: KPC-2
T3 construct: made in house; host or cells: E. coli BL21(DE3)
Outline: as §1, with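 “added. Imipenem (A300) served KPC-2 and cefotaxime (A260) served SHV-5.” for “added.”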

VIM-2 = molecular target: T4, VIM-2 (Escherichia coli, UniProt Q5U7L7); assay: β-lactamase enzyme inhibition assay, VIM-2 (nitrocefin substrate); type: biochemical; conditions: Class B; nitrocefin substrate, 486 nm; read-out: VIM-2
T4 construct: made in house; host or cells: E. coli BL21(DE3)
Outline: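 Nitrocefin hydrolysis, read at 486 nm over 10 min, served as the measure of VIM-2 activity. The enzyme had been incubated with compound for 15 min at 37 °C before 100 μM substrate was added, and IC50 values were fitted from percent inhibition of the initial rate.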

[6] = test system: K. pneumoniae producing the Class D carbapenemase OXA-48; assay: Broth microdilution MIC assay with meropenem, K. pneumoniae OXA-48; type: cell-based; conditions: Fixed Mero (meropenem) 4 μg/mL; K. p. 11978 OXA-48
Outline: as §2

T1 sequence (P05364 21-381): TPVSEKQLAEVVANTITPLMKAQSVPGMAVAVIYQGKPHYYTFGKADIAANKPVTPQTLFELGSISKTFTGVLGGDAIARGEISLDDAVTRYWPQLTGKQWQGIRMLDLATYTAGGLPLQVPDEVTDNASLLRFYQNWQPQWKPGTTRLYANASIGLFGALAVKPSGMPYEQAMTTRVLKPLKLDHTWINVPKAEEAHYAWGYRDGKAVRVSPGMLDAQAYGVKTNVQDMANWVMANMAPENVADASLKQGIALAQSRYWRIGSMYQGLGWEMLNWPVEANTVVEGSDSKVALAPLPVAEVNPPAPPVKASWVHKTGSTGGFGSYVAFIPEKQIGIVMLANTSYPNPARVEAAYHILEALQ
T3 sequence (Q9F663 25-293, looked up): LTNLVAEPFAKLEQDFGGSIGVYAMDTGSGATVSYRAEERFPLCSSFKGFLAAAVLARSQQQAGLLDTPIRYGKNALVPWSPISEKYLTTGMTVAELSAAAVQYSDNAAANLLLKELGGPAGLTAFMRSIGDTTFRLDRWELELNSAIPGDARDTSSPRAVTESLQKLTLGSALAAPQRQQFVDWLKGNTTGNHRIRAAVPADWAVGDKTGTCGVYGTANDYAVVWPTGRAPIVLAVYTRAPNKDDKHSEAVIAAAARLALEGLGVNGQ
T2 sequence (P0A3M1 22-286): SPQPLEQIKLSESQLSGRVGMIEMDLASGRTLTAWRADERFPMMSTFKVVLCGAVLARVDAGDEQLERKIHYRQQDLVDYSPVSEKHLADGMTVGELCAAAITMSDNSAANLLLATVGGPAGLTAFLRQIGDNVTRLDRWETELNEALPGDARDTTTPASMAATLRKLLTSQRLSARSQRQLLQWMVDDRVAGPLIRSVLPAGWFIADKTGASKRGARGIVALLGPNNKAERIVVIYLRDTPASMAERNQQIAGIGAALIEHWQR

Row | SMILES | IC50 (OXA-48) [nM] | IC50 (AmpC) [nM] | MIC (μg/mL) of Exemplary Compounds in presence of fixed β-lactams: E. coli ESBL4 CTX-M-15 [1] | MIC (μg/mL) of Exemplary Compounds in presence of fixed β-lactams: P. aerug. 2775 VIM-2 [2] | IC50 (SHV-5) [nM] | MIC (μg/mL) of Exemplary Compounds in presence of fixed β-lactams: K. p. A-1797 KPC-2 VIM-4 [3] | MIC (μg/mL) of Exemplary Compounds in presence of fixed β-lactams: K. p. 156319 KPC-3 [4] | MIC (μg/mL) of Exemplary Compounds in presence of fixed β-lactams: E. cl. 144200 p99 AmpC [5] | IC50 (KPC-2) [nM] | IC50 (VIM-2) [nM] | MIC (μg/mL) of Exemplary Compounds in presence of fixed β-lactams: K. p. 11978 OXA-48 [6]
1 | NCc1cnn(CC(=O)N[C@H]2Cc3cccc(C(=O)O)c3OB2O)c1 [Example 68, (R)-3-(2-(4-(aminomethyl)-1H-pyrazol-1-yl)acetamido)-2-hydroxy-3,4-dihydro-2H-benzo[e][1,2]oxaborinine-8-carboxylic acid] | 100 to 1000 | < 100 | C (C represents an MIC of <1 μg/mL) | C (C represents an MIC of <1 μg/mL) | 100 to 1000 | B (B represents an MIC between 1 and 16 μg/mL inclusive) | C (C represents an MIC of <1 μg/mL) | C (C represents an MIC of <1 μg/mL) | < 100 | 100 to 1000 | B (B represents an MIC between 1 and 16 μg/mL inclusive)
2 | NCCS(=O)(=O)NCc1cn(CC(=O)N[C@H]2Cc3cccc(C(=O)O)c3OB2O)nn1 [Example 69, (R)-3-(2-(4-(((2-aminoethyl)sulfonamido)methyl)-1H-1,2,3-triazol-1-yl)acetamido)-2-hydroxy-3,4-dihydro-2H-benzo[e][1,2]oxaborinine-8-carboxylic acid] | 1000 to 10000 | < 100 | C (C represents an MIC of <1 μg/mL) | C (C represents an MIC of <1 μg/mL) | < 100 | B (B represents an MIC between 1 and 16 μg/mL inclusive) | B (B represents an MIC between 1 and 16 μg/mL inclusive) | C (C represents an MIC of <1 μg/mL) | < 100 | 100 to 1000 | B (B represents an MIC between 1 and 16 μg/mL inclusive)
3 | Nc1ccc(S(=O)(=O)NCc2cn(CC(=O)N[C@H]3Cc4cccc(C(=O)O)c4OB3O)nn2)cc1 [Example 70, (R)-3-(2-(4-(((4-aminophenyl)sulfonamido)methyl)-1H-1,2,3-triazol-1-yl)acetamido)-2-hydroxy-3,4-dihydro-2H-benzo[e][1,2]oxaborinine-8-carboxylic acid] | 100 to 1000 | < 100 | C (C represents an MIC of <1 μg/mL) | B (B represents an MIC between 1 and 16 μg/mL inclusive) | < 100 | B (B represents an MIC between 1 and 16 μg/mL inclusive) | B (B represents an MIC between 1 and 16 μg/mL inclusive) | C (C represents an MIC of <1 μg/mL) | < 100 | 1000 to 10000 | B (B represents an MIC between 1 and 16 μg/mL inclusive)
4 | NCCn1cnc(C(=O)N[C@H]2Cc3cccc(C(=O)O)c3OB2O)n1 [Example 71, (R)-3-(1-(2-aminoethyl)-1H-1,2,4-triazole-3-carboxamido)-2-hydroxy-3,4-dihydro-2H-benzo[e][1,2]oxaborinine-8-carboxylic acid] | 10000 to 100000 | < 100 | C (C represents an MIC of <1 μg/mL) | C (C represents an MIC of <1 μg/mL) | 100 to 1000 | B (B represents an MIC between 1 and 16 μg/mL inclusive) | C (C represents an MIC of <1 μg/mL) | C (C represents an MIC of <1 μg/mL) | 100 to 1000 | 100 to 1000 | A (A represents an MIC>16 μg/mL)
5 | NCCn1cnc(C(=O)N[C@H]2Cc3cccc(C(=O)O)c3OB2O)c1 [Example 72, (R)-3-(1-(2-aminoethyl)-1H-imidazole-4-carboxamido)-2-hydroxy-3,4-dihydro-2H-benzo[e][1,2]oxaborinine-8-carboxylic acid] | 100 to 1000 | < 100 | C (C represents an MIC of <1 μg/mL) | B (B represents an MIC between 1 and 16 μg/mL inclusive) | < 100 | B (B represents an MIC between 1 and 16 μg/mL inclusive) | C (C represents an MIC of <1 μg/mL) | C (C represents an MIC of <1 μg/mL) | < 100 | 100 to 1000 | B (B represents an MIC between 1 and 16 μg/mL inclusive)
6 | NCCn1cncc1C(=O)N[C@H]1Cc2cccc(C(=O)O)c2OB1O [Example 73, (R)-3-(1-(2-aminoethyl)-1H-imidazole-5-carboxamido)-2-hydroxy-3,4-dihydro-2H-benzo[e][1,2]oxaborinine-8-carboxylic acid] | 100 to 1000 | < 100 | C (C represents an MIC of <1 μg/mL) | C (C represents an MIC of <1 μg/mL) | < 100 | B (B represents an MIC between 1 and 16 μg/mL inclusive) | B (B represents an MIC between 1 and 16 μg/mL inclusive) | C (C represents an MIC of <1 μg/mL) | < 100 | 100 to 1000 | B (B represents an MIC between 1 and 16 μg/mL inclusive)
7 | Nc1ccc(-c2cn(CC(=O)N[C@H]3Cc4cccc(C(=O)O)c4OB3O)nn2)cn1 [Example 74, (R)-3-(2-(4-(6-aminopyridin-3-yl)-1H-1,2,3-triazol-1-yl)acetamido)-2-hydroxy-3,4-dihydro-2H-benzo[e][1,2]oxaborinine-8-carboxylic acid] | 100 to 1000 | < 100 | C (C represents an MIC of <1 μg/mL) | B (B represents an MIC between 1 and 16 μg/mL inclusive) | < 100 | A (A represents an MIC>16 μg/mL) | B (B represents an MIC between 1 and 16 μg/mL inclusive) | C (C represents an MIC of <1 μg/mL) | < 100 | 1000 to 10000 | B (B represents an MIC between 1 and 16 μg/mL inclusive)
8 | NCc1ccc(-c2cn(CC(=O)N[C@H]3Cc4cccc(C(=O)O)c4OB3O)nn2)cn1 [Example 75, (R)-3-(2-(4-(6-(aminomethyl)pyridin-3-yl)-1H-1,2,3-triazol-1-yl)acetamido)-2-hydroxy-3,4-dihydro-2H-benzo[e][1,2]oxaborinine-8-carboxylic acid] | 100 to 1000 | < 100 | C (C represents an MIC of <1 μg/mL) | B (B represents an MIC between 1 and 16 μg/mL inclusive) | < 100 | B (B represents an MIC between 1 and 16 μg/mL inclusive) | C (C represents an MIC of <1 μg/mL) | C (C represents an MIC of <1 μg/mL) | 100 to 1000 | 100 to 1000 | B (B represents an MIC between 1 and 16 μg/mL inclusive)
